These results are taken from patent US20250228239A1, “MOLECULES HAVING PESTICIDAL UTILITY, AND INTERMEDIATES, COMPOSITIONS, AND PROCESSES, RELATED THERETO” (priority 2024, published 2025).

Holding throughout (format): in vivo
Assay [1] concerns Beet Armyworm (Spodoptera exigua, LAPHEG). In words: Bioassays on Beet Armyworm (BAW), 128-well diet tray assay. The note with it: Spodoptera exigua. In outline: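 Test molecule was dissolved in 90:10 acetone-water and applied at 50 μg/cm^2 onto artificial diet in eight wells, then dried. Second instar larvae, one to five per well, were added, and trays were kept vented at 25° C. with a 14:10 photoperiod for five to seven days before mortality was recorded.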

Assay [2] deals with Yellow Fever Mosquito (Aedes aegypti, AEDSAE). The note with it: for YFM rating: Table ABC / ABC-DP rating. The procedure, abridged:
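Mortality after 3 days at room temperature is the read-out, scored well by well and converted to a rating. Test molecules came from 4000 ppm stocks in DMSO, further diluted in 90:10 water/acetone, and were exposed to roughly 1-day-old larvae suspended in liver-powder water.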

Assay [3] concerns Cabbage Looper (Trichoplusia ni, TRIPNI). Nature of the assay: Bioassays on Cabbage Looper (CL), 128-well diet tray assay. The conditions noted are these: Trichoplusia ni. In outline:
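Second-instar larvae (1–5 per well) placed on artificial diet surface-treated with 50 μg/cm^2 test molecule applied in 90:10 acetone-water and dried. Held at 25° C., 14:10 light-dark, for five to seven days. Percent mortality scored per well and averaged over eight wells.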

Where [4] appears, read: Beet Armyworm, rating class, read-out: BAW.
Where [5] appears, read: Yellow Fever Mosquito, rating class.
The mark [6] stands for this setting: Cabbage Looper, rating class, read-out: CL.
Setting [7] is: Beet Armyworm, Table ABC / ABC-DP rating, read-out: BAW rating.
Where [8] appears, read: Cabbage Looper, Table ABC / ABC-DP rating, read-out: CL rating.
Where [9] appears, read: Table ABC: Biological Results, species BAW, read-out: BAW.
Where [10] appears, read: Table ABC: Biological Results, species YFM.
Setting [11] is: Table ABC: Biological Results, species CL, read-out: CL.

Where two headings read alike, the source gives them in different places.

With `O=C1CCC(C(=O)Nc2c(F)ccc(NC(=O)c3cc(NC(=O)[C@H]4[C@H](c5ccc(F)c(C(F)(F)F)c5)C4(Cl)Cl)ccc3Cl)c2F)C1` (stereo partly drawn) [F1488, 2-Chloro-5-((1R,3R)-2,2-dichloro-3-(4-fluoro-3-(trifluoromethyl)phenyl)cyclopropane-1-carboxamido)-N-(2,4-difluoro-3-(3-oxocyclopentane-1-carboxamido)phenyl)benzamide], the pest or weed control at 50 µg/cm2 in assay [1] (setting [4]) and in assay [3] (setting [6]) was 50 to 100% throughout. In addition, the YFM entry in assay [2] (setting [5]) was “A (80–100)”.
Consider `O=C(COC(F)(F)F)Nc1c(F)ccc(NC(=O)c2cc(NC(=O)[C@H]3[C@H](c4ccc(Cl)c(Cl)c4)C3(Cl)Cl)ccc2Cl)c1F` [F1766, 2-Chloro-5-((1R,3R)-2,2-dichloro-3-(3,4-dichlorophenyl)cyclopropane-1-carboxamido)-N-(2,4-difluoro-3-(2-(trifluoromethoxy)acetamido)phenyl)benzamide], for which the pest or weed control at 50 µg/cm2 in assay [1] (setting [4]) and in assay [3] (setting [6]) was 50 to 100% each time. The YFM entry in assay [2] (setting [5]) was “A (80–100)”.
With `O=C(NNC(=O)C(F)(F)F)c1cc(NC(=O)[C@H]2[C@H](c3cc(Cl)cc(Cl)c3)C2(Cl)Cl)ccc1Cl` (relative stereo) [F2515, trans-2,2-Dichloro-N-(4-chloro-3-(2-(2,2,2-trifluoroacetyl)hydrazine-1-carbonyl)phenyl)-3-(3,5-dichlorophenyl)cyclopropane-1-carboxamide], the pest or weed control at 50 µg/cm2 in assay [1] (setting [7]) and in assay [3] (setting [8]) was 50 to 100% throughout. For the same molecule, the YFM rating result in assay [2] (Yellow Fever Mosquito) is “A (80–100)”.
With `O=C(NCCCCl)c1c(F)ccc(NC(=O)[C@H]2[C@H](c3ccc(F)c(Cl)c3)C2(Cl)Cl)c1F` (relative stereo) [F2028, trans-N-(3-Chloropropyl)-3-(2,2-dichloro-3-(3-chloro-4-fluorophenyl)cyclopropane-1-carboxamido)-2,6-difluorobenzamide], the pest or weed control at 50 µg/cm2 in assay [1] (setting [7]) and in assay [3] (setting [8]) was 50 to 100% throughout. For the same molecule, the YFM rating entry in assay [2] (Yellow Fever Mosquito) is “A (80–100)”.
With `O=C(CCF)Nc1c(F)ccc(NC(=O)c2cc(NC(=O)[C@H]3[C@H](c4ccc(F)c(C(F)(F)F)c4)C3(Cl)Cl)ccc2Cl)c1F` [F1735, 2-Chloro-5-((1R,3R)-2,2-dichloro-3-(4-fluoro-3-(trifluoromethyl)phenyl)cyclopropane-1-carboxamido)-N-(2,4-difluoro-3-(3-fluoropropanamido)phenyl)benzamide], the pest or weed control at 50 µg/cm2 in assay [1] (setting [4]) and in assay [3] (setting [6]) was 50 to 100% each time. Further, the YFM result in assay [2] (setting [5]) is reported as “A (80–100)”.
As to `O=C(Nc1ccc(F)cc1F)c1cc(NC(=O)[C@H]2[C@H](c3ccc(F)c(Cl)c3F)C2(Cl)Cl)ccc1Cl` (relative stereo) [F1034, trans-2-Chloro-5-(2,2-dichloro-3-(3-chloro-2,4-difluorophenyl)cyclopropane-1-carboxamido)-N-(2,4-difluorophenyl)benzamide], the pest or weed control at 50 µg/cm2 in assay [1] (setting [9]) and in assay [3] (setting [11]) was 50 to 100% throughout. Besides, in assay [2] (setting [10]), the YFM result was “A (80–100)”.
Regarding `CC(C)(C)OC(=O)N(C(=O)OC(C)(C)C)c1c(F)ccc(NC(=O)c2cc(NC(=O)[C@H]3[C@H](c4ccc(F)c(Br)c4)C3(Cl)Cl)ccc2Cl)c1F` [F1776, tert-Butyl N-[3-[[5-[[(1R,3R)-3-(3-bromo-4-fluoro-phenyl)-2,2-dichloro-cyclopropanecarbonyl]amino]-2-chloro-benzoyl]amino]-2,6-difluoro-phenyl]-N-tert-butoxycarbonyl-carbamate], the pest or weed control at 50 µg/cm2 in assay [1] (setting [7]) and in assay [3] (setting [8]) was 50 to 100% each time. Also, the YFM rating entry in assay [2] (Yellow Fever Mosquito) was “A (80–100)”.
Regarding `CS(=O)(=O)N(c1c(F)ccc(NC(=O)c2cc(NC(=O)[C@H]3[C@H](c4ccc(F)c(C(F)(F)F)c4)C3(Cl)Cl)ccc2Cl)c1F)S(C)(=O)=O` [F1277, 2-chloro-5-((1R,3R)-2,2-dichloro-3-(4-fluoro-3-(trifluoromethyl)phenyl)cyclopropane-1-carboxamido)-N-(2,4-difluoro-3-(N-(methylsulfonyl)methylsulfonamido)phenyl)benzamide], the pest or weed control at 50 µg/cm2 in assay [1] (setting [9]) and in assay [3] (setting [11]) was 50 to 100% each time. Also, the YFM entry in assay [2] (setting [10]) is on record as “A (80–100)”.
In the case of `O=C(Nc1ccc(F)c(NC(=O)C(F)F)c1F)c1cc(NC(=O)[C@H]2[C@H](c3cc(C(F)(F)F)cc(C(F)(F)F)c3)C2(Cl)Cl)ccc1Cl` (relative stereo) [F1802, trans-5-(3-(3,5-bis(Trifluoromethyl)phenyl)-2,2-dichlorocyclopropane-1-carboxamido)-2-chloro-N-(3-(2,2-difluoroacetamido)-2,4-difluorophenyl)benzamide], the pest or weed control at 50 µg/cm2 in assay [1] (setting [7]) and in assay [3] (setting [8]) was 50 to 100% throughout. In addition, the YFM rating result in assay [2] (Yellow Fever Mosquito) is “A (80–100)”.
`O=C(Nc1ccc(F)c(NC(=O)C(F)(F)F)c1)c1cc(NC(=O)[C@H]2[C@H](c3ccc(F)c(Cl)c3)C2(Cl)Cl)ccc1Cl` [F1814, 2-Chloro-5-((1R,3R)-2,2-dichloro-3-(3-chloro-4-fluorophenyl)cyclopropane-1-carboxamido)-N-(4-fluoro-3-(2,2,2-trifluoroacetamido)phenyl)benzamide]: the pest or weed control at 50 µg/cm2 in assay [1] (setting [7]) and in assay [3] (setting [8]) was 50 to 100% in each case. The YFM rating entry in assay [2] (Yellow Fever Mosquito) is “A (80–100)”.
`O=C(Nc1ccc(F)c(NC(=O)C2CCOC2)c1F)c1cc(NC(=O)[C@H]2[C@H](c3ccc(Cl)c(Cl)c3)C2(Cl)Cl)ccc1Cl` (stereo partly drawn) [F1610, N-(3-(2-Chloro-5-((1R,3R)-2,2-dichloro-3-(3,4-dichlorophenyl)cyclopropane-1-carboxamido)benzamido)-2,6-difluorophenyl)tetrahydrofuran-3-carboxamide]: the pest or weed control at 50 µg/cm2 in assay [1] (setting [4]) and in assay [3] (setting [6]) was 50 to 100% throughout. The YFM result in assay [2] (setting [5]) was “A (80–100)”.
As to `O=C(NNCc1ccccc1)c1cc(NC(=O)[C@H]2[C@H](c3cc(Cl)cc(Cl)c3)C2(Cl)Cl)ccc1Cl` (relative stereo) [F2545, trans-N-(3-(2-Benzylhydrazine-1-carbonyl)-4-chlorophenyl)-2,2-dichloro-3-(3,5-dichlorophenyl)cyclopropane-1-carboxamide], the pest or weed control at 50 µg/cm2 in assay [1] (setting [7]) and in assay [3] (setting [8]) was 50 to 100% throughout. In addition, the YFM rating result in assay [2] (Yellow Fever Mosquito) was “A (80–100)”.
For the molecule `O=C(NNc1ccc([N+](=O)[O-])cc1)c1cc(NC(=O)[C@H]2[C@H](c3cc(Cl)cc(Cl)c3)C2(Cl)Cl)ccc1Cl` (relative stereo) [F2555, trans-2,2-Dichloro-N-(4-chloro-3-(2-(4-nitrophenyl)hydrazine-1-carbonyl)phenyl)-3-(3,5-dichlorophenyl)cyclopropane-1-carboxamide], the pest or weed control at 50 µg/cm2 in assay [1] (setting [7]) and in assay [3] (setting [8]) was 50 to 100% throughout. The YFM rating entry in assay [2] (Yellow Fever Mosquito) was “A (80–100)”.
Regarding `O=C(NCC(F)(F)F)c1cc(NC(=O)[C@H]2[C@H](c3cc(C(F)(F)F)cc(Cl)c3F)C2(Cl)Cl)ccc1Cl` (relative stereo) [F2012, trans-2-Chloro-5-(2,2-dichloro-3-(3-chloro-2-fluoro-5-(trifluoromethyl)phenyl)cyclopropane-1-carboxamido)-N-(2,2,2-trifluoroethyl)benzamide], the pest or weed control at 50 µg/cm2 in assay [1] (setting [7]) and in assay [3] (setting [8]) was 50 to 100% throughout. The YFM rating result in assay [2] (Yellow Fever Mosquito) was “A (80–100)”.
In the case of `O=C(NCCCNC(=O)C(F)(F)F)c1cc(NC(=O)[C@H]2[C@H](c3cc(Cl)cc(Cl)c3)C2(Cl)Cl)ccc1Cl` (relative stereo) [F2094, trans-2-Chloro-5-(2,2-dichloro-3-(3,5-dichlorophenyl)cyclopropane-1-carboxamido)-N-(3-(2,2,2-trifluoroacetamido)propyl)benzamide], the pest or weed control at 50 µg/cm2 in assay [1] (setting [7]) and in assay [3] (setting [8]) was 50 to 100% in each case. The YFM rating result in assay [2] (Yellow Fever Mosquito) is “B (More than 0 – Less than 80)”.
Regarding `O=C(Nc1ccc(F)cc1F)c1cc(NC(=O)[C@H]2[C@H](c3cc(Cl)c(Br)c(Cl)c3)C2(Cl)Cl)ccc1Cl` (relative stereo) [F1006, trans-5-(3-(4-Bromo-3,5-dichlorophenyl)-2,2-dichlorocyclopropane-1-carboxamido)-2-chloro-N-(2,4-difluorophenyl)benzamide], the pest or weed control at 50 µg/cm2 in assay [1] (setting [9]) and in assay [3] (setting [11]) was 50 to 100% each time. In addition, the YFM entry in assay [2] (setting [10]) is recorded as “A (80–100)”.
In the case of `O=C(NCCNC(=O)C(F)(F)F)c1cc(NC(=O)[C@H]2[C@H](c3cc(Cl)cc(Cl)c3)C2(Cl)Cl)ccc1Cl` (relative stereo) [F2066, trans-2-Chloro-5-(2,2-dichloro-3-(3,5-dichlorophenyl)cyclopropane-1-carboxamido)-N-(2-(2,2,2-trifluoroacetamido)ethyl)benzamide], the pest or weed control at 50 µg/cm2 in assay [1] (setting [7]) and in assay [3] (setting [8]) was 50 to 100% each time. The YFM rating result in assay [2] (Yellow Fever Mosquito) is “A (80–100)”.
